Data reported in US20240360194A1, “New Peptides as Potent and Selective GIP Receptor Agonists” (Sanofi, priority 2021, published 2024).

Experiments:
[1] = Chemical stability assessment (UHPLC-UV purity loss on storage in solution); type: physicochemical; settings: Chemical stability buffer system A: 20 mM phosphate buffer pH 7.4; ~300 μM
Method: Purity of a peptide batch was determined through UHPLC/MS prior to chemical stability measurement. The target concentration was 300 μM pure compound. Solutions from solid samples were prepared in the following buffer systems with a concentration of ˜300 μM compound based on the previously determined % purity: • Chemical stability buffer system A) 20 mM phosphate buffer pH 7.4, • Chemical stability buffer system B) 8 mM phosphate buffer pH 7.4, 14 mg/ml propylene glycol, 5.5 mg/ml phenol • Chemical stability buffer system C) 100 mM phosphate buffer pH 7.4, 2.7 mg/ml m-cresol
Prepared solutions were filtered through […] pore size and filled into sterilized glass containers under laminar flow conditions.
Glass containers were stored for 28 days at 5 and 40° C. After this time, the samples were centrifuged for 15 min at 2500 RCF. Then 1.5 μl of the undiluted supernatant were analysed with UHPLC-UV.
The chemical stability was rated through the relative loss of purity calculated by the equation: […]
The purity is calculated as
The analytical methods used were Analytical UHPLC Method B or C.
Peptide samples were prepared in Chemical stability buffer system A or B and stability was assessed as described in Methods.

[2] = ThT assay for the assessment of physical stability (fibrillation); type: physicochemical; settings: ThT buffer system A: 100 mM phosphate buffer pH 7.4; 3 mg/ml, 37° C., shaking
Excerpt: Low physical stability of a peptide solution may lead to amyloid fibril formation, which is observed as well-ordered, thread-like macromolecular structures in the sample, which eventually may lead to gel formation. Thioflavin T (ThT) is widely used to visualize and quantify the presence of misfolded protein aggregates [Biancalana et al., Biochim. Biophys. Acta 2010, 1804(7), 1405]. […] Enzymol. 1999, 309, 274]. The time course for fibril formation often follows the characteristic shape of a sigmoidal curve and can be separated into three regions: a lag phase, a fast growth phase, and a plateau phase. The typical fibril formation process starts with the lag phase in which the amount of partially folded peptide turned into fibrils is not significant enough to be detected. The lag-time corresponds to the time the critical mass of the nucleus is built. Afterwards, a drastic elongation phase follows, and fibril concentration increases rapidly. Investigations were carried out to determine fibrillation tendencies under stress conditions by shaking at 37° C. within Fluoroskan Ascent FL or Fluoroskan Ascent. For the tests in Fluoroskan Ascent (FL), 200 μl sample were placed into a 96-well mictrotiter plate PS, flat bottom, Greiner Fluotrac No. 655076. Plates were sealed with Scotch Tape (Qiagen). Samples were stressed by continuous cycles of 10 sec shaking at 960 rpm and 50 sec rest period at 37° C. The kinetic was monitored by measuring fluorescence intensity every 20 min. Peptides were diluted in a buffer system to a final concentration of 3 mg/ml. 20 μl of a 10.1 mM ThT solution in H2O were added to 2 ml of peptide solution to receive a final concentration of 100 μM ThT. For each sample eight replicates were tested. • ThT buffer system A) 100 mM phosphate buffer pH 7.4 • ThT buffer system B) 100 mM phosphate buffer pH 7.4, 2.7 mg/ml m-cresol Lag time in hours (h) in Thioflavin T (ThT) assay of peptide samples was determined in ThT buffer system A as described in Methods.

human GIP receptor = target: T1, human GIP receptor (Homo sapiens, UniProt P48546); assay: In vitro cellular cAMP assay for GIP receptor efficacy (human adipocytes); type: cell-based; settings: for EC50: read-out: hGIPR EC50; for Emax: read-out: hGIPR Emax
T1 construct: human adipocytes endogenously expressing the human GIP receptor; host or cells: human preadipocytes (Lonza) differentiated to adipocytes
T1 sequence (P48546 22-466): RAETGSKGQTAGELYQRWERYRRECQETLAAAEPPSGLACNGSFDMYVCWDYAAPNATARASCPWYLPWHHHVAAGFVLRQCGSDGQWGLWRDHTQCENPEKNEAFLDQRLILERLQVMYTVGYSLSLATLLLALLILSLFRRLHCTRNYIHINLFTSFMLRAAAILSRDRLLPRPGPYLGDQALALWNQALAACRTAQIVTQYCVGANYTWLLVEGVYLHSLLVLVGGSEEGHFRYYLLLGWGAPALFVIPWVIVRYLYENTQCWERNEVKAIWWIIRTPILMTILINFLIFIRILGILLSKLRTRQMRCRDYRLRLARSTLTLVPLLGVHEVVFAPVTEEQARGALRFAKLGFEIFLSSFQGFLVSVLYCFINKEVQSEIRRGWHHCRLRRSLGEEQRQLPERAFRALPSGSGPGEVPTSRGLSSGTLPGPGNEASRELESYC
In short: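 cAMP is read by HTRF (665/620 nm ratio, 1 h after reagents in lysis buffer) following 30 min compound exposure at room temperature. Cells are human preadipocyte-derived adipocytes, differentiated 6 days with insulin, dexamethasone, IBMX (200 μM), PPARγ agonist and L-thyroxine, seeded 5000 per well.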

CC[C@H](C)[C@H](NC(=O)[C@H](CCCNC(=N)N)NC(=O)[C@H](CC(=O)O)NC(=O)[C@H](CCCCNC(=O)COCCOCCNC(=O)COCCOCCNC(=O)CC[C@H](NC(=O)CCCCCCCCCCCCCCCCC(=O)O)C(=O)O)NC(=O)C(C)(C)NC(=O)[C@@H](NC(=O)[C@H](CO)NC(=O)[C@H](CC(C)C)NC(=O)[C@H](CC(=O)O)NC(=O)[C@H](CO)NC(=O)[C@@H](NC(=O)[C@H](Cc1ccccc1)NC(=O)[C@@H](NC(=O)CNC(=O)[C@H](CCC(=O)O)NC(=O)C(C)(C)NC(=O)[C@@H](N)Cc1ccc(O)cc1)[C@@H](C)O)[C@@H](C)CC)[C@@H](C)CC)C(=O)N[C@@H](Cc1c[nH]cn1)C(=O)N[C@@H](CCC(N)=O)C(=O)NC(C)(C)C(=O)N[C@@H](CCC(=O)O)C(=O)N[C@@H](Cc1ccccc1)C(=O)N[C@H](C(=O)N[C@@H](CCC(=O)O)C(=O)N[C@@H](Cc1c[nH]c2ccccc12)C(=O)N[C@@H](CC(C)C)C(=O)N[C@@H](CC(C)C)C(=O)N[C@@H](C)C(=O)N[C@@H](CCC(N)=O)C(=O)N[C@@H](CCC(=O)O)C(=O)NCC(N)=O)[C@@H](C)CC [SEQ ID NO: 12, H2N-Y-Aib-E-G-T-F-I-S-D-L-S-I-Aib-K[{AEEA}2-gGlu-C18OH]-D-R-I-H-Q-Aib-E-F-I-E-W-L-L-A-Q-E-G-NH2]
Relative purity loss over 28 days at 40° C. [1]: 7.4%
Increase in FI [2]: no
Lag time before increase [2]: >45 h
EC50 (human GIP receptor): 0.5 nM
Emax (human GIP receptor): 112%

CC[C@H](C)[C@H](NC(=O)[C@H](Cc1ccccc1)NC(=O)[C@H](CCC(=O)O)NC(=O)[C@H](CCC(=O)O)NC(=O)[C@H](CCC(N)=O)NC(=O)[C@H](Cc1c[nH]cn1)NC(=O)[C@@H](NC(=O)[C@H](CCCNC(=N)N)NC(=O)[C@H](CC(=O)O)NC(=O)[C@H](CCCCNC(=O)COCCOCCNC(=O)COCCOCCNC(=O)CC[C@H](NC(=O)CCCCCCCCCCCCCCCCC(=O)O)C(=O)O)NC(=O)C(C)(C)NC(=O)[C@@H](NC(=O)[C@H](CO)NC(=O)[C@H](CC(C)C)NC(=O)[C@H](CC(=O)O)NC(=O)[C@H](CO)NC(=O)[C@@H](NC(=O)[C@@](C)(CC)NC(=O)[C@@H](NC(=O)CNC(=O)[C@H](CCC(=O)O)NC(=O)C(C)(C)NC(=O)[C@@H](N)Cc1ccc(O)cc1)[C@@H](C)O)[C@@H](C)CC)[C@@H](C)CC)[C@@H](C)CC)C(=O)N[C@@H](CCC(=O)O)C(=O)N[C@@H](Cc1c[nH]c2ccccc12)C(=O)N[C@@H](CC(C)C)C(=O)N[C@@H](CC(C)C)C(=O)N[C@@H](C)C(=O)N[C@@H](CCC(N)=O)C(=O)N[C@@H](CCCNC(=N)N)C(=O)NCC(N)=O [SEQ ID NO: 15, H2N-Y-Aib-E-G-T-Iva-I-S-D-L-S-I-Aib-K[{AEEA}2-gGlu-C18OH]-D-R-I-H-Q-E-E-F-I-E-W-L-L-A-Q-R-G-NH2]
Relative purity loss over 28 days at 40° C. [1]: 6.5%
Increase in FI [2]: no
Lag time before increase [2]: >45 h
EC50 (human GIP receptor): 0.8 nM
Emax (human GIP receptor): 109%
